{
  "source": "patent US20080249178A1",
  "about": "“MAGNESIUM COMPOSITIONS AND USES THEREOF FOR INCREASING LIFESPAN” (priority 2007, published 2008)",
  "key": {"[1]": {"assay": "Magnesium absorption rate in rats (metabolic cages, urine and feces magnesium by ICP-AES)", "conditions": "higher dosage compositions; magnesium chloride in water, magnesium gluconate in skim milk or water comprising 5 weight percent lactose", "method": "Fifty 3-month old, male Sprague Dawley (SD) rats were divided into five groups of ten rats. Rats of this age and older are considered adult. Each of the rats was placed in a separate metabolic cage equipped with urine- and feces-collecting wells. All of the rats were maintained in a temperature-controlled room (22° C. to 25° C.) with a dark period from 08:00 pm to 08:00 am daily. From day 1 through day 3, each rat was fed daily 15 g of magnesium-free food and de-ionized water. […] The medium was skim milk for Composition 1 and Group 1, milk prepared from powdered milk, by diluting the powdered milk with water to obtain a composition like that of skim milk, for Composition 2 and Group 2, 1% milk cream in water for Composition 3 and Group 3, water comprising 5 weight percent lactose for Composition 4 and Group 4, and water for the Control Composition and Control Group. […]\nFrom day 4 through day 10, urine from each rat was collected daily. The collected urine from each rat was then pooled together and the total volume of the pooled urine from each rat was recorded. The pooled urine from each rat, in an amount of […], was analyzed for magnesium content using an inductively coupled plasma-atomic emission spectrometer (ICP-AES). […] The pooled feces from each rat, in an amount of 0.5 g, were analyzed for magnesium content using an ICP-AES. […]"}, "Sprague Dawley (SD) rats": {"test_system": "Sprague Dawley (SD) rats", "conditions": "aging rats, 6 mg/kg MgCl2", "method": "Twenty 2-month old, male Sprague Dawley (SD) rats were housed in a temperature-controlled room (22° C. to 25° C.) with a dark period from 08:00 pm to 08:00 am daily. […] Over 7 days before the training and trial period began, each rat was handled and habituated to the maze and to Kellogg's Froot Loop cereal.\nEach rat underwent a test of one trial, followed by an interval of 10-minutes, followed by another trial, and so on, for a total of 6 trials in one day. In each trial, each rat went through a sample run in the maze, followed by an interval of 15 seconds, followed by a choice run in the maze. In the sample run, the subject rat was forced to go to the left or to the right by the presence of a block, according to a pseudorandom sequence (with an equal number of left turns and right turns, and no more than two consecutive turns in the same direction). As a reward, Froot Loop cereal was available in the food well at the end of the run, regardless of the direction that was taken by virtue of the block. In the choice run, the block that had been present in the preceding sample run was removed, and the rat was allowed to choose to go to the left or to the right. As a reward, Froot Loop cereal was available in the food well at the end of the run, only when the rat had made a “correct choice” by choosing the direction opposite that taken in the preceding sample run. […]\nOn the first day (designated day 0) of the feeding of the two groups, as just described, each rat underwent a preliminary test of one trial, followed by an interval of 10 minutes, followed by another trial, and so on, for a total of 4 trials in one day. […] In this preliminary test, the choice accuracy level, or ratio of correct choices made, co, to the number of number of trials in the test, no, was determined for each rat. […]\nThree groups of animals (young, aging, and magnesium-treated aging rats) were used. […] Spatial working memory was assessed using a T-maze non-matching-to-place task. […] Spatial working memory was first assessed on an elevated T-maze. […]"}, "Sprague-Dawley rats": {"test_system": "Sprague-Dawley rats", "assay": "Novel object recognition test in rats", "format": "in vivo", "method": "In this example, the effect of magnesium supplementation on recognition memory was tested. Three groups of rats were used in these experiments: 1) young rats (three months old); aging rats (12-14 months old), and; 3) magnesium-treated aging rats (12-14 months old, diet supplemented with 6 mg/kg MgCl2 from 8 months of age). We used experimentally naive, female, Sprague-Dawley young […], aging (12-14 month old) and […] rats (Charles River) at the beginning of the behavior experiments. They were housed two per cage with continuous access to food and water under a 12:12 light-dark cycle, with light onset at 8:00 a.m. […] All experiments involving animals were approved by the Massachusetts Institute of Technology's and Tsinghua University Committees on Animal Care.\nThe three groups of rats were tested for recognition memory using an object recognition test with a single exposure to the object during training. The task is based on the natural tendency of rodents to explore new objects and tests the animals' memory capacity for distinguishing novel versus familiar objects.\nBriefly, the rats were first individually habituated to the personnel and then to open-field arena during 2 weeks. […] The retention intervals were 10 min and 24 hours. Objects were cleaned thoroughly between trials with 20% ethanol solution to ensure the absence of olfactory cues. The particular objects for a given trial were randomly determined, but each object was used for only one trial per rat. Memory of the familiar object is associated with increased exploration of the new object and an exploration index (% correct) is calculated as new object inspection time/30.\nIn this example, the effect of magnesium supplementation on memory consolidation was studied. […]\nBriefly, the rats were first individually habituated to the personnel and then to open-field arena during 2 weeks. […] The particular objects for a given trial were randomly determined, but each object was used for only one trial per rat. […]"}, "[2]": {"conditions": "diabetic patients, nearly 1 g of magnesium daily for 1 month; cited from earlier work"}, "[3]": {"test_system": "young (9-month old) and aged (25-month old) rats", "conditions": "food containing 2% magnesium oxide for 8 days, cited from earlier work"}, "[4]": {"test_system": "mice that were genetically altered to present symptoms of Alzheimer's disease (AD)", "assay": "Modified Morris water maze in AD mice", "format": "in vivo", "conditions": "AD mice aged 13 months", "method": "Another group, the control group, of 10 mice that were genetically altered to present symptoms of AD were fed a Control Diet, a diet of normal solid food and water, for 30 days.\nThe pool used was a pool of water in a circular metal tank (150 cm in diameter and 50 cm in depth) having a water height of 30 cm and a water temperature that was maintained at ˜22° C. The pool was placed in a moderately lit area and surrounded by a black curtain. An acrylic platform (15 cm in diameter) was placed 2 cm below the surface of the water in the middle of one quadrant of the pool, equidistant from the center and the edge of the pool. Outside the pool, a cue was placed so as to be visible to a mouse in the maze, allowing a mouse to use it as a landmark for spatial orientation. The cue remained unchanged throughout the test period.\nOn the first day of the training and testing period, the water in the pool was transparent, such that the platform was visible. Each mouse was trained to swim towards the platform and to stand on the platform so as not to be submerged in the pool. […] The amount of time the mouse took to find the platform, referred to as “escape latency,” was recorded for each trial.\nOn the second day of the training and testing period, a small quantity of milk was added to the water in the pool, such that the pool was opaque and the platform was no longer visible. […]"}},
  "data": [
    {"smiles": "[Cl-].[Cl-].[Mg+2]", "note": "[MgCl2, magnesium chloride]", "values": [
      {"measurement": "magnesium absorption rate at relatively high magnesium dosage", "setting": "[1]", "value": "less desirable"},
      {"measurement": "spatial working memory performance with increased delay", "setting": "Sprague Dawley (SD) rats; 2 and 5 min delays (p<0.05)", "value": "significantly enhanced the performance of the aging rats"},
      {"measurement": "percentage of correct choices during training", "setting": "Sprague Dawley (SD) rats; 15 sec delay (p<0.05)", "value": "performed significantly better from their first trials"},
      {"measurement": "asymptotic choice accuracy level", "setting": "Sprague Dawley (SD) rats; after 8 days of training", "value": 94, "unit": "%"},
      {"measurement": "novel object exploration preference", "setting": "Sprague-Dawley rats; aging rats (12-14 months old), 6 mg/kg MgCl2 from 8 months of age, single exposure, 10 minute retention interval (P<0.0001)", "value": "preferentially explored the novel object to the same extent as young rats"},
      {"measurement": "ability to distinguish novel versus familiar objects", "setting": "Sprague-Dawley rats; aging rats, 6 mg/kg MgCl2, single exposure, after 24 hours", "value": "lose there ability to distinguish novel versus familiar objects"},
      {"measurement": "preference for the novel object", "setting": "Sprague-Dawley rats; aging rats, 6 mg/kg MgCl2, two training sessions, 24-hour retention interval", "value": "retained a high level of preference"}
    ]},
    {"smiles": "[O]=[Mg]", "note": "[magnesium oxide]", "values": [
      {"measurement": "increase of serum magnesium level", "setting": "[2]", "value": "about 10%"},
      {"measurement": "metabolic control", "setting": "[2]", "value": "only minor improvement in metabolic control"},
      {"measurement": "side-effect", "setting": "[3]", "value": "diarrhea and weight loss"},
      {"measurement": "cognitive function", "setting": "[3]; gain transient", "value": "some sign of improvement of cognitive function"}
    ]},
    {"smiles": "CC12CC3CC(C)(C1)CC(N)(C3)C2", "note": "[memantine]", "values": [
      {"measurement": "reduction of the effects of AD on learning capacity, compared with aricept", "setting": "[4]", "value": "better at reducing the effects of AD on learning capacity than aricept"}
    ]}
  ]
}
